Reference: patent US7417156B2, “Orally active, antimalarial, anticancer, artemisinin-derived trioxane dimers” (Johns Hopkins University, priority 2002, dated 2008)
Like-named read-outs stand apart in the source and are kept apart here.

Experiments:
SR = assay: NCI 60 cell line panel screen (SRB); type: cell-based, human
NCI-H226 = assay: NCI 60 cell line panel screen (SRB); type: cell-based, human
HCC-2998 = assay: NCI 60 cell line panel screen (SRB); type: cell-based, human
KM12 = assay: NCI 60 cell line panel screen (SRB); type: cell-based, human; conditions: for Log10GI50: Colon Cancer, KM12; for Log10LC50 / Log10TGI50: KM12 (Colon Cancer); for Log10LC50: LC50: PG=−50; for Log10TGI50: TGI: PG=0
SW-620 = assay: NCI 60 cell line panel screen (SRB); type: cell-based, human
SK-MEL-5 = assay: NCI 60 cell line panel screen (SRB); type: cell-based, human
UACC-62 = assay: NCI 60 cell line panel screen (SRB); type: cell-based, human
A498 = assay: NCI 60 cell line panel screen (SRB); type: cell-based, human
RXF 393 = assay: NCI 60 cell line panel screen (SRB); type: cell-based, human; conditions: for Log10LC50 / Log10TGI50: RXF 393 (Renal Cancer); for Log10LC50: LC50: PG=−50; for Log10TGI50: TGI: PG=0; for Log10GI50: Renal Cancer, RXF 393
SN12C = assay: NCI 60 cell line panel screen (SRB); type: cell-based, human
UO-31 = assay: NCI 60 cell line panel screen (SRB); type: cell-based, human; conditions: for Log10GI50: Renal Cancer, UO-31; for Log10LC50 / Log10TGI50: UO-31 (Renal Cancer); for Log10LC50: LC50: PG=−50; for Log10TGI50: TGI: PG=0
MDA-N = assay: NCI 60 cell line panel screen (SRB); type: cell-based, human
P. berghei = conditions: P. berghei-infected mice; cited from earlier work
[1] = test system: Ehrlich ascites tumor (EAT) cells; conditions: MTT assay; cited from earlier work
P388 leukemia = conditions: NCI Report on NSC 369397; cited from earlier work
[2] = test system: P. vivax and P. falciparum; conditions: 2099 cases of malaria, different dosage forms; cited from earlier work
[3] = test system: P. berghei NY malaria parasite; assay: Antimalarial efficacies in vivo in mice; conditions: for ED50: Plasmodium berghei, read-out: ED50
Text: Neither overt toxicity nor behavioral modification was observed due to drug administration in any of these mouse experiments.

SF-295 = assay: NCI 60 cell line panel screen (SRB); type: cell-based, human
[4] = Solubility in water at pH 7.4; type: physicochemical

Question: For `C[C@@H]1CC[C@H]2[C@@H](C)C(=O)O[C@@H]3O[C@]4(C)CC[C@@H]1[C@]32OO4` [Artemisinin], which Log10GI50 (SR; Leukemia, SR) is on record?
Answer: Its Log10GI50 is >−4.00.

Question: And the Log10LC50 (SR; SR (Leukemia), LC50: PG=−50)?
Answer: Its Log10LC50 is >−4.00 log10M.

Question: And the Log10TGI50 (SR; SR (Leukemia), TGI: PG=0)?
Answer: The Log10TGI50 was >−4.00 log10M.

Question: What about the Log10LC50 (NCI-H226; NCI-H226 (Non-Small Cell Lung Cancer), LC50: PG=−50) of the same compound?
Answer: The Log10LC50 was >−4.00 log10M.

Question: And the Log10TGI50 (NCI-H226; NCI-H226 (Non-Small Cell Lung Cancer), TGI: PG=0)?
Answer: The Log10TGI50 was >−4.00 log10M.

Question: What about the Log10GI50 (NCI-H226; Non-Small Cell Lung Cancer, NCI-H226) of the same compound?
Answer: The Log10GI50 was >−4.00.

Question: What about the Log10GI50 (HCC-2998; Colon Cancer, HCC-2998) of the same compound?
Answer: The Log10GI50 was >−4.00.

Question: And the Log10LC50 (HCC-2998; HCC-2998 (Colon Cancer), LC50: PG=−50)?
Answer: The Log10LC50 was >−4.00 log10M.

Question: What about the Log10TGI50 (HCC-2998; HCC-2998 (Colon Cancer), TGI: PG=0) of the same compound?
Answer: Its Log10TGI50 is >−4.00 log10M.

Question: What about the Log10GI50 (KM12) of the same compound?
Answer: The Log10GI50 was >−4.00.

Question: And the Log10LC50 (KM12)?
Answer: The Log10LC50 was >−4.00 log10M.

Question: And the Log10TGI50 (KM12)?
Answer: Its Log10TGI50 is >−4.00 log10M.

Question: What about the Log10GI50 (SW-620; Colon Cancer, SW-620) of the same compound?
Answer: The Log10GI50 was >−4.00.

Question: What about the Log10LC50 (SW-620; SW-620 (Colon Cancer), LC50: PG=−50) of the same compound?
Answer: Its Log10LC50 is >−4.00 log10M.

Question: And the Log10TGI50 (SW-620; SW-620 (Colon Cancer), TGI: PG=0)?
Answer: Its Log10TGI50 is >−4.00 log10M.

Question: And the Log10GI50 (SK-MEL-5; Melanoma, SK-MEL-5)?
Answer: The Log10GI50 was >−4.10.

Question: What about the Log10TGI50 (SK-MEL-5; SK-MEL-5 (Melanoma), TGI: PG=0) of the same compound?
Answer: The Log10TGI50 was >−4.00 log10M.

Question: What about the Log10GI50 (UACC-62; Melanoma, UACC-62) of the same compound?
Answer: The Log10GI50 was >−4.00.

Question: And the Log10LC50 (UACC-62; UACC-62 (Melanoma), LC50: PG=−50)?
Answer: Its Log10LC50 is >−4.00 log10M.

Question: What about the Log10TGI50 (UACC-62; UACC-62 (Melanoma), TGI: PG=0) of the same compound?
Answer: Its Log10TGI50 is >−4.00 log10M.

Question: And the Log10LC50 (A498; A498 (Renal Cancer), LC50: PG=−50)?
Answer: The Log10LC50 was >−4.00 log10M.

Question: What about the Log10TGI50 (A498; A498 (Renal Cancer), TGI: PG=0) of the same compound?
Answer: The Log10TGI50 was >−4.00 log10M.

Question: And the Log10GI50 (A498; Renal Cancer, A498)?
Answer: The Log10GI50 was >−4.00.

Question: And the Log10LC50 (RXF 393)?
Answer: Its Log10LC50 is >−4.00 log10M.

Question: What about the Log10TGI50 (RXF 393) of the same compound?
Answer: Its Log10TGI50 is >−4.00 log10M.

Question: And the Log10GI50 (RXF 393)?
Answer: Its Log10GI50 is −4.08.

Question: And the Log10GI50 (SN12C; Renal Cancer, SN12C)?
Answer: The Log10GI50 was −4.21.

Question: And the Log10LC50 (SN12C; SN12C (Renal Cancer), LC50: PG=−50)?
Answer: Its Log10LC50 is >−4.00 log10M.

Question: And the Log10TGI50 (SN12C; SN12C (Renal Cancer), TGI: PG=0)?
Answer: Its Log10TGI50 is >−4.00 log10M.

Question: What about the Log10GI50 (UO-31) of the same compound?
Answer: The Log10GI50 was −4.06.

Question: And the Log10LC50 (UO-31)?
Answer: Its Log10LC50 is >−4.00 log10M.

Question: And the Log10TGI50 (UO-31)?
Answer: Its Log10TGI50 is >−4.00 log10M.

Question: What about the Log10GI50 (MDA-N; Breast Cancer, MDA-N) of the same compound?
Answer: The Log10GI50 was >−4.00.

Question: What about the Log10LC50 (MDA-N; MDA-N (Breast Cancer), LC50: PG=−50) of the same compound?
Answer: Its Log10LC50 is >−4.00 log10M.

Question: What about the Log10TGI50 (MDA-N; MDA-N (Breast Cancer), TGI: PG=0) of the same compound?
Answer: The Log10TGI50 was >−4.00 log10M.

Question: And the SD90 (P. berghei)?
Answer: Its SD90 is 6.20 mg/kg.

Question: And the IC50 [1]?
Answer: Its IC50 is 29.8 µM.

Question: What about the activity in words (P388 leukemia) of the same compound?
Answer: The activity in words was “inactive”.

Question: And the clinical outcome [2]?
Answer: The clinical outcome was “clinical cure of all patients”.

Question: Which results are given for `C[C@@H]1CC[C@H]2[C@@H](C)C(CC(O)(COC(=O)CCC(=O)O)CC3OC4O[C@]5(C)CC[C@H]6[C@H](C)CC[C@@H]([C@H]3C)C46OO5)OC3O[C@]4(C)CCC1C32OO4` (stereo partly shown) [Compound 9, tertiary alcohol primary succinate ester]?
Answer: ED50 ([3]; route IV): 2.4 mg/kg; ED50 ([3]; route PO): 4.8 mg/kg; ED90 ([3]; route IV): 11.0 mg/kg × 4; % Parasite Supression at 10 mg/kg ([3]; route IV): 83.4%; ED90 ([3]; route PO): 34.0 mg/kg × 4; % Parasite Supression at 10 mg/kg ([3]; route PO): 55.4%; Log10GI50 (KM12): <−8.30; Log10LC50 (KM12): −4.36 log10M; Log10TGI50 (KM12): <−8.30 log10M; Log10GI50 (SF-295; CNS Cancer, SF-295): <−8.30; Log10LC50 (SF-295; SF-295 (CNS Cancer), LC50: PG=−50): −4.60 log10M; Log10TGI50 (SF-295; SF-295 (CNS Cancer), TGI: PG=0): <−8.30 log10M; Log10LC50 (RXF 393): >−4.30 log10M; Log10TGI50 (RXF 393): −4.45 log10M; Log10GI50 (RXF 393): −7.67; Log10GI50 (UO-31): −5.05; Log10LC50 (UO-31): >−4.30 log10M; Log10TGI50 (UO-31): >−4.30 log10M; water solubility relative to artelinic acid [4]: ~30 times
